According to patent US20210401931A1, “METHODS AND MATERIALS FOR TREATING CANCER” (Mayo Foundation for Medical Education and Research, priority 2018, published 2021):
“Also recorded” adds a separate entry of the source. Blank lines part the entries; values can stand above or below the molecule they belong to.

Assays:
RB-p65 interaction = experiment: Co-immunoprecipitation of RB and p65 in PC-3 cells; assay type: cell-based, human; settings: TNFα 20 ng/mL, 24 hours
From the text: FIGS. 2A-H. RB phosphorylation by CDK4 enhances RB interaction with NFκB protein p65. (A) Western blot analysis of reciprocal co-immunoprecipitation of endogenous RB1 and p65 proteins in PC-3 cells. (B) Schematic diagram depicting a set of p65 recombinant protein constructs. Western blot analysis of RB proteins in PC-3 cells whole cell lysate pulled down by GST or GST-p65 recombinant proteins. Stars indicated expected molecular weight. (C) Western blot analysis of RB proteins in PC-3 whole cell lysate pulled down by GST or GST-p65 recombinant proteins. Cell lysates were treated with or without λ, phosphatase before GST-pull down. (D) Western blot analysis of PC-3 whole cell lysates (WCL) and co-IP samples. Cell lysates were treated with or without λ, phosphatase before IP. (E) Western blot analysis of WCL and co-IP samples in DU145 cells 24 hours after transfected with indicated plasmids. (F) Western blot analysis of WCL and co-IP samples in PC-3 cells. Cells were treated with or without palbociclib (5 μM) for 24 hours before IP. […] Western blot bands of co-IPed RB protein were quantified by ImageJ software and normalized to the quantified value of IP-ed RB in cells without TNFα treatment. […] Western blot bands of p65 protein were quantified by ImageJ software and normalized to the quantified value of p65 protein in cell lysate without immuno-depletion (preimmune sample). […]

[1] = system: NF-κB site of the PD-L1 promoter; experiment: EMSA with biotin-labeled PD-L1-prom oligonucleotide and PC-3 nuclear extracts; assay type: cell-based, human; settings: PC-3 nuclear extract
From the text: FIGS. 11A-H. (A) Heatmap showing differentially expressed genes (FDR<0.01) between palbociclib treatment versus DMSO and knockdown RB1 versus control. Gene expression values (FPKM) were Z-score normalized. FPKM, Fragments Per Kilobase of transcript per Million mapped reads. (B) UCSC Genome Browser screenshots of meta-analysis of published RB ChIP high throughput sequencing (ChIP-seq) data showing RB binding to CD274 (PD-L1) gene locus in K562 cells. PD-L1-prom oligonucleotide DNA containing NF-κB binding sequence was shown in the RB binding peak in the PD-L1 gene, the corresponding mutant PD-L1-prom oligonucleotide DNA was shown below. FIG. 11B discloses SEQ ID NOS 279-280, respectively, in order of appearance. (C) ChIP-qPCR analysis of RB binds at the PD-L1 promotor in PC-3 cells. All data were shown as mean values±SD (n=3). *** P<0.001. (D) ChIP-reChIP analysis examining the co-localization of p65 and RB in the PD-L1 promoters. All data were shown as mean values±SD (n=3). ** P<0.01. […]
FIGS. 21A-N. Effect of RB depletion, cell cycle, and RB-N S249/T252 phospho-mimicking peptide on PD-L1 expression in cell lines of various cancer types. […] 48 hours after infection, PD-L1 expression was determined by western blotting (A), RT-qPCR (B), and FACS (C). […] (D) Pd-l1 protein and mRNA levels were determined by western blotting in primary SKO and DKO mouse prostate tumor cell lines. […]

p65-IκBα interaction = experiment: Co-immunoprecipitation of p65 and IκBα in PC-3 cells; assay type: cell-based, human; settings: TNFα 20 ng/mL, 24 hours
[2] = system: MAP3K7- and CHD1-KD PC-3 cells; experiment: MTS viability / IC50 analysis in MAP3K7- and CHD1-KD PC-3 cells; assay type: cell-based, human; settings: MTS assay, log 2(IC50ratio)
Method: FIGS. 14A-G. RB functions as a negative regulator of NFκB signaling. (A) PC-3 infected with lentivirus for indicated shRNAs were treated with different chemicals and cells viability was measured by MTS assay. Heat map showing the normalized IC50 ratio (log 2(IC50ratio)). (B-D) PC-3 cells infected with lentivirus expressing indicated shRNAs were harvested for western blots (B), FACS (C), and RT-qPCR (D). All data were shown as mean values±SD (n=3). ns, not significant, * P<0.05, ** P<0.01, *** P<0.001. (E, F) PC-3 cells infected with indicated lentivirus were injected s.c. into NSG mice, and tumors were harvested and photographed at day 21 (E). Data in (F) were shown as means±SD (n=5). ns, not significant, * P<0.05. (G) A model depicting RB functions as a negative regulator of NFκB (p65/p50), providing an explanation of the finding that depletion of RB offsets the death of PTEN-null cells induced by either MAP3K7 or CHD1 deletion.
MAP3K7 or CHD1 was knocked down (KD) in PTEN-null PC-3 cells followed by treatment with an array of small molecule inhibitors for a number of cancer relevant pathways.

p65 NFκB protein = target: T1, p65 NFκB protein (human, UniProt Q04206 1-551); experiment: GST pull down from PC-3 whole cell lysate, western blot (FIG. 2H)
T1 construct: which one stood in the assay is told under assay; also called endogenous p65; in vitro transcribed and translated p65 (pCMV4 p65)
Method: Cells were lysed with IP buffer (50 mM Tris-HCl, pH 7.4, 150 mM NaCl, 1% Triton X-100, 1% sodium deoxycholate, and 1% protease inhibitor cocktails) on ice for more than 30 minutes. GST fusion proteins were immobilized on glutathione-Sepharose beads (GE Healthcare Lifesciences). After washing with lysis buffer, the beads were incubated with cell lysates overnight at 4° C. overnight. The beads were then washed six times with binding buffer and re-suspended in sample buffer. The bound proteins were subjected to western blotting analysis.

T1 sequence (Q04206 whole entry): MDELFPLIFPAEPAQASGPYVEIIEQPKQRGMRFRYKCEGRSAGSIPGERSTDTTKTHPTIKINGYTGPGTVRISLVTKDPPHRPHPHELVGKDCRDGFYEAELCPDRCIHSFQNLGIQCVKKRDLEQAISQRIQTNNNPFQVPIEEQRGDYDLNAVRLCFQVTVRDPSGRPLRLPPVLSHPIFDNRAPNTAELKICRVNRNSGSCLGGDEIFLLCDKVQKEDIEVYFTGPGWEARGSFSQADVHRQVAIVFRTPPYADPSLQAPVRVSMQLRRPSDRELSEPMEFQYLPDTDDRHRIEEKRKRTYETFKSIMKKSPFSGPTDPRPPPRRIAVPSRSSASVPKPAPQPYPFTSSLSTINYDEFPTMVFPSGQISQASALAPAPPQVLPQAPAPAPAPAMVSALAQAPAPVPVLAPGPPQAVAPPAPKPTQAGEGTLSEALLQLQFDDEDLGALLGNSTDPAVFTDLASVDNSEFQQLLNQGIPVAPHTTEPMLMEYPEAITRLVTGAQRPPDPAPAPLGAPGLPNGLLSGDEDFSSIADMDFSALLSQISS

Molecule: TNFα
p65-RB interaction in the nucleus (RB-p65 interaction): increased
DNA-protein complex (DPC) level at PD-L1-Prom probe [1]: largely enhanced; also recorded: further enhanced
p65-IκBα interaction (p65-IκBα interaction): decreased

Molecule: Cc1ccc(NCCCc2ccccc2)c(N)c1 [JSH-23]
viability of MAP3K7- and CHD1-KD PC-3 cells (normalized IC50 ratio) [2]: further increased viability loss

binding result (p65 NFκB protein): no binding
B1: GST-RB-C (other, human, UniProt P06400 793-928, looked up)
chain: PSSPLRIPGGNIYISPLKSPYKISEGLPTPTKMTPRSRILVSIGESFGTSEKFQKINQMVCNSDRVLKRSAEGSNPPKPLKKLRFDIEGSDEADGSKHLPGESKFQQKLAEMTSTRTRMQKQKMNDSMDTSNKEEK
notes: domain: RB-C; not shown: glutathione S-transferase (GST) tag of the fusion
